Assay results taken from US11382328B2, “Rapid drug discovery methods for pathogen inactivation” (priority 2019, dated 2022).

System: E. coli strain W3110
Assay: Synergy assays: Biolog chemical sensitivity panels with Group IB metal, coefficient of drug interaction (CDI) from relative growth
Type: cell-based
Conditions: for CDI (coefficient of drug interaction), copper mixed with biocide: Copper (mM) section; for CDI (coefficient of drug interaction), gold + biocide: Gold (μM)
[1] = Silver 0.5 μM, 2nd of four biocide concentrations, E. coli
[2] = Silver 0.5 μM, 3rd of four biocide concentrations, E. coli
[3] = Silver 0.5 μM, 4th of four biocide concentrations, E. coli
[4] = Silver 1.0 μM, 2nd of four biocide concentrations, E. coli
[5] = Silver 1.0 μM, 3rd of four biocide concentrations, E. coli
[6] = Silver 1.0 μM, 4th of four biocide concentrations, E. coli
[7] = Silver 5.0 μM, 2nd of four biocide concentrations, E. coli
[8] = Silver 5.0 μM, 3rd of four biocide concentrations, E. coli
[9] = Silver 5.0 μM, 4th of four biocide concentrations, E. coli
[10] = 1st of 3 copper concentrations (value not shown), 4th of four biocide concentrations
[11] = 2nd of 3 copper concentrations (value not shown), 4th of four biocide concentrations
[12] = 3rd of 3 copper concentrations (value not shown), 4th of four biocide concentrations
[13] = Gold section of Table 5, first of three gold concentrations (μM, value not given), biocide concentration 4 of 4
[14] = Gold section of Table 5, second of three gold concentrations (μM, value not given), biocide concentration 4 of 4
[15] = Gold section of Table 5, third of three gold concentrations (μM, value not given), biocide concentration 4 of 4
[16] = Silver 0.5 μM, biocide concentration 4 of 4
[17] = Silver 1.0 μM, biocide concentration 4 of 4
[18] = Silver 5.0 μM, biocide concentration 4 of 4
[19] = 1st of 3 copper concentrations (value not shown), 3rd of four biocide concentrations
[20] = 2nd of 3 copper concentrations (value not shown), 3rd of four biocide concentrations
[21] = 3rd of 3 copper concentrations (value not shown), 3rd of four biocide concentrations
[22] = Gold section of Table 5, first of three gold concentrations (μM, value not given), biocide concentration 3 of 4
[23] = Gold section of Table 5, second of three gold concentrations (μM, value not given), biocide concentration 3 of 4
[24] = Gold section of Table 5, third of three gold concentrations (μM, value not given), biocide concentration 3 of 4

In the case of `c1ccc(-c2ccccn2)nc1` [2,2′-dipyridyl], the CDI (Copper 0.1 mM, biocide concentration 1 of 4) is reported as 0.76, the CDI (Copper 0.1 mM, biocide concentration 2 of 4) is reported as “Tox” and the CDI (Copper 0.1 mM, biocide concentration 3 of 4) is reported as “Tox”. For the same compound, the CDI (Copper 0.1 mM, biocide concentration 4 of 4) was “Tox”, the CDI (Copper 0.5 mM, biocide concentration 1 of 4) was 0.61 and the CDI (Copper 0.5 mM, biocide concentration 2 of 4) was “Tox”. The CDI (Copper 0.5 mM, biocide concentration 3 of 4) was “Tox”, the CDI (Copper 0.5 mM, biocide concentration 4 of 4) was “Tox” and the CDI (Copper 1.0 mM, biocide concentration 1 of 4) was 0.76. The CDI (Copper 1.0 mM, biocide concentration 2 of 4) was “Tox”, the CDI (Copper 1.0 mM, biocide concentration 3 of 4) was “Tox” and the CDI (Copper 1.0 mM, biocide concentration 4 of 4) was “Tox”. The “CDI (coefficient of drug interaction)” value (Gold 5 μM, biocide concentration 2 of 4, E. coli) was “Tox”, the “CDI (coefficient of drug interaction)” value (Gold 5 μM, biocide concentration 3 of 4, E. coli) was “Tox” and the “CDI (coefficient of drug interaction)” value (Gold 5 μM, biocide concentration 4 of 4, E. coli) was “Tox”. For the same compound, the “CDI (coefficient of drug interaction)” value (Gold 25 μM, biocide concentration 1 of 4, E. coli) was 1.09, the “CDI (coefficient of drug interaction)” value (Gold 25 μM, biocide concentration 2 of 4, E. coli) was “Tox” and the “CDI (coefficient of drug interaction)” value (Gold 25 μM, biocide concentration 3 of 4, E. coli) was “Tox”. For the same compound, the “CDI (coefficient of drug interaction)” value (Gold 25 μM, biocide concentration 4 of 4, E. coli) was “Tox”, the “CDI (coefficient of drug interaction), silver + biocide” value (“CDI … silver + biocide” for short) (Silver 0.5 μM, 1st of four biocide concentrations, E. coli) was 1.55 and the “CDI … silver + biocide” value [1] was “Tox”. The “CDI … silver + biocide” value [2] was “Tox”, the “CDI … silver + biocide” value [3] was “Tox” and the “CDI … silver + biocide” value (Silver 1.0 μM, 1st of four biocide concentrations, E. coli) was 1.07. For the same compound, the “CDI … silver + biocide” value [4] was “Tox”, the “CDI … silver + biocide” value [5] was “Tox” and the “CDI … silver + biocide” value [6] was “Tox”. The “CDI … silver + biocide” value (Silver 5.0 μM, 1st of four biocide concentrations, E. coli) was 1.21, the “CDI … silver + biocide” value [7] was “Tox” and the “CDI … silver + biocide” value [8] was “Tox”. For the same compound, the “CDI … silver + biocide” value [9] was “Tox”, the “CDI (coefficient of drug interaction)” value ([…], biocide concentration 1 of 4, E. coli) was 0.72 and the “CDI (coefficient of drug interaction)” value ([…], biocide concentration 2 of 4, E. coli) was “Tox”. For the same compound, the “CDI (coefficient of drug interaction)” value ([…], biocide concentration 3 of 4, E. coli) was “Tox” and the “CDI (coefficient of drug interaction)” value ([…], biocide concentration 4 of 4, E. coli) was “Tox”.
`COc1ccc(CO)cc1OC` [3,4-dimethoxybenzyl alcohol] was tested, and the “CDI (coefficient of drug interaction), copper mixed with biocide” value (“CDI … with biocide” for short) [10] was “Tox”, the “CDI … with biocide” value [11] was “Tox” and the “CDI … with biocide” value [12] was “Tox”. For the same compound, the “CDI (coefficient of drug interaction)” value [13] was “Tox”, the “CDI (coefficient of drug interaction)” value [14] was “Tox” and the “CDI (coefficient of drug interaction)” value [15] was “Tox”. The CDI [16] was “Tox”, the CDI [17] was “Tox” and the CDI [18] was “Tox”.
In the case of `O=[N+]([O-])c1ncc[nH]1` [2-nitroimidazole], the “CDI … with biocide” value [19] is reported as “Tox”, the “CDI … with biocide” value [10] is reported as “Tox” and the “CDI … with biocide” value [20] is reported as “Tox”. The “CDI … with biocide” value [11] was “Tox”, the “CDI … with biocide” value [21] was “Tox” and the “CDI … with biocide” value [12] was “Tox”. For the same compound, the “CDI (coefficient of drug interaction)” value [22] was “Tox”, the “CDI (coefficient of drug interaction)” value [13] was “Tox” and the “CDI (coefficient of drug interaction)” value [23] was “Tox”. For the same compound, the “CDI (coefficient of drug interaction)” value [14] was “Tox”, the “CDI (coefficient of drug interaction)” value [24] was “Tox” and the “CDI (coefficient of drug interaction)” value [15] was “Tox”. For the same compound, the “CDI … silver + biocide” value [2] was “Tox”, the “CDI … silver + biocide” value [3] was “Tox” and the “CDI … silver + biocide” value [5] was “Tox”. For the same compound, the “CDI … silver + biocide” value [6] was “Tox”, the “CDI … silver + biocide” value [8] was “Tox” and the “CDI … silver + biocide” value [9] was “Tox”.
For `O=C(O)c1cc(O)c(O)c(O)c1` [gallic acid], the “CDI (coefficient of drug interaction)” value (Copper (mM), 1st of 3 copper concentrations (head line not shown), biocide concentration 4 of 4, E. coli) was “Tox”, the “CDI (coefficient of drug interaction)” value (Copper (mM), 2nd of 3 copper concentrations (head line not shown), biocide concentration 4 of 4, E. coli) was “Tox” and the “CDI (coefficient of drug interaction)” value (Copper (mM), 3rd of 3 copper concentrations (head line not shown), biocide concentration 4 of 4, E. coli) was “Tox”. The “CDI (coefficient of drug interaction), gold + biocide” value (shortened to “CDI … gold + biocide”) (first of 3 gold concentrations, biocide concentration 4 of 4) was “Tox”, the “CDI … gold + biocide” value (second of 3 gold concentrations, biocide concentration 4 of 4) was “Tox” and the “CDI … gold + biocide” value (third of 3 gold concentrations, biocide concentration 4 of 4) was “Tox”. The CDI [16] was “Tox”, the CDI [17] was “Tox” and the CDI [18] was “Tox”.
With `CCn1cc(C(=O)O)c(=O)c2ccc(C)nc21` [Nalidixic Acid] the “CDI … with biocide” value [19] was “Tox”, the “CDI … with biocide” value [10] was “Tox” and the “CDI … with biocide” value [20] was “Tox”. For the same compound, the “CDI … with biocide” value [11] was “Tox”, the “CDI … with biocide” value [21] was “Tox” and the “CDI … with biocide” value [12] was “Tox”. The “CDI (coefficient of drug interaction)” value [22] was “Tox”, the “CDI (coefficient of drug interaction)” value [13] was “Tox” and the “CDI (coefficient of drug interaction)” value [23] was “Tox”. The “CDI (coefficient of drug interaction)” value [14] was “Tox”, the “CDI (coefficient of drug interaction)” value [24] was “Tox” and the “CDI (coefficient of drug interaction)” value [15] was “Tox”. For the same compound, the “CDI … silver + biocide” value [2] was “Tox”, the “CDI … silver + biocide” value [3] was “Tox” and the “CDI … silver + biocide” value [5] was “Tox”. For the same compound, the “CDI … silver + biocide” value [6] was “Tox”, the “CDI … silver + biocide” value [8] was “Tox” and the “CDI … silver + biocide” value [9] was “Tox”.
In the case of `NCC[C@H](O)C(=O)N[C@@H]1C[C@H](N)[C@@H](O[C@H]2O[C@H](CN)[C@@H](O)[C@H](O)[C@H]2O)[C@H](O)[C@H]1O[C@H]1O[C@H](CO)[C@@H](O)[C@H](N)[C@H]1O` [amikacin], the “cell toxicity / growth curves with and without silver” value is reported as “enhanced cell toxicity”.
`O=C1C=C2C(=CCOC2O)O1` (stereo not drawn) [patulin] was tested, and the “CDI … with biocide” value (1st of 3 copper concentrations (value not shown), 1st of four biocide concentrations) was “Tox”, the “CDI … with biocide” value (1st of 3 copper concentrations (value not shown), 2nd of four biocide concentrations) was “Tox” and the “CDI … with biocide” value [19] was “Tox”. For the same compound, the “CDI … with biocide” value [10] was “Tox”, the “CDI … with biocide” value (2nd of 3 copper concentrations (value not shown), 1st of four biocide concentrations) was “Tox” and the “CDI … with biocide” value (2nd of 3 copper concentrations (value not shown), 2nd of four biocide concentrations) was “Tox”. The “CDI … with biocide” value [20] was “Tox”, the “CDI … with biocide” value [11] was “Tox” and the “CDI … with biocide” value (3rd of 3 copper concentrations (value not shown), 1st of four biocide concentrations) was “Tox”. For the same compound, the “CDI … with biocide” value (3rd of 3 copper concentrations (value not shown), 2nd of four biocide concentrations) was “Tox”, the “CDI … with biocide” value [21] was “Tox” and the “CDI … with biocide” value [12] was “Tox”. The “CDI (coefficient of drug interaction)” value (Gold section of Table 5, first of three gold concentrations (μM, value not given), biocide concentration 2 of 4) was “Tox”, the “CDI (coefficient of drug interaction)” value [22] was “Tox” and the “CDI (coefficient of drug interaction)” value [13] was “Tox”. For the same compound, the “CDI (coefficient of drug interaction)” value (Gold section of Table 5, second of three gold concentrations (μM, value not given), biocide concentration 2 of 4) was “Tox”, the “CDI (coefficient of drug interaction)” value [23] was “Tox” and the “CDI (coefficient of drug interaction)” value [14] was “Tox”. The “CDI (coefficient of drug interaction)” value (Gold section of Table 5, third of three gold concentrations (μM, value not given), biocide concentration 2 of 4) was “Tox”, the “CDI (coefficient of drug interaction)” value [24] was “Tox” and the “CDI (coefficient of drug interaction)” value [15] was “Tox”. For the same compound, the “CDI … silver + biocide” value [1] was “Tox”, the “CDI … silver + biocide” value [2] was “Tox” and the “CDI … silver + biocide” value [3] was “Tox”. The “CDI … silver + biocide” value [4] was “Tox”, the “CDI … silver + biocide” value [5] was “Tox” and the “CDI … silver + biocide” value [6] was “Tox”. For the same compound, the “CDI … silver + biocide” value [7] was “Tox”, the “CDI … silver + biocide” value [8] was “Tox” and the “CDI … silver + biocide” value [9] was “Tox”.
